From patent EP0477107B1, “Steroids contained in cyclodextrins” (Laboratoires BESINS ISCOVESCO Société anonyme dite :, priority 1990, dated 1992) come the findings set out here.

Values after ≈ are worked out from the molar mass of the structure shown. Where two headings read alike, the source gives them in different places.

This data set in a line: Saturation solubility of steroids in water and in aqueous cyclodextrin solutions (25°, 72 h stirring, filtration, assay of supernatant). Format: physicochemical. The protocol: On réalise des solutions de bétacyclodextrines à différentes concentrations de 0 à 5mM. A ces différentes solutions, on ajoute de la prégnane-5-béta-ol-3alpha-one-20 par pincées et ce jusqu'à apparition d'un précipité. On met sous agitation magnétique à 25° pendant 72 heures en prenant soin de vérifier à intervalles réguliers qu'il y a toujours saturation en stéroïdes. Au bout de 72 heures, on filtre les solutions ainsi réalisées et on dose le surnageant. Les résultats obtenus font l'objet de la courbe de la figure 1.
Excepté la concentration en ladite cyclodextrine qui varie de 0 à 32mM, on procède selon le même protocole qu'à l'exemple 1; les résultats sont illustrés par la courbe de la figure 2.
On procède selon le même protocole qu'à l'exemple 1. Les résultats sont représentés par la courbe de la figure 3.
On travaille selon les mêmes conditions qu'à l'exemple 1. Les résultats obtenus sont schématisés par la courbe de la figure 4.
On suit encore le même protocole qu'à l'exemple 1 sauf en ce que la concentration en bétacyclodextrine varie de 0 à 4mM et les résultats font l'objet de la courbe de la figure 5.
Ici encore on suit le même protocole qu'à l'exemple 1 sauf en ce que la concentration en hydroxypropybéta-cyclodextrine varie de 0 à 32mM et les résultats sont représentés par la courbe de la figure 6.

For `CC(=O)[C@H]1CC[C@H]2[C@@H]3CC[C@@H]4C[C@H](O)CC[C@]4(C)[C@H]3CC[C@]12C` [Prégnanolone, prégnanol-3alpha-one-20], the solubility at 72 h is, setting by setting: (water + betacyclodextrin, read-out: SOLUBILITE EN GRAMMES PAR LITRE dans eau + bétacyclodextrine) 440 µg/mL; (water + hydroxypropylbetacyclodextrin, optimal solubility read from the curves at the adequate hydroxypropylbétacyclodextrine concentration (up to 32mM), 25°, 72 h, read-out: SOLUBILITE EN GRAMMES PAR LITRE dans eau + hydroxypropylbétacyclodextrine) 3000 µg/mL; (water without cyclodextrin, 25°, 72 h, read-out: SOLUBILITE EN GRAMMES PAR LITRE dans l'eau) 5 µg/mL (≈ 15.7 µM).

For the molecule “prégnane-diol-3,20 [Dihydroprogestérone]”, the “SOLUBILITE EN GRAMMES PAR LITRE dans eau + bétacyclodextrine” value (optimal solubility read from the curves at the adequate bétacyclodextrine concentration (0 to 5mM; 0 to 4mM for dihydro-4-progestérone), 25°, 72 h) is listed as 0,06 GRAMMES PAR LITRE. Moreover, the “SOLUBILITE EN GRAMMES PAR LITRE dans eau + hydroxypropylbétacyclodextrine” value (optimal solubility read from the curves at the adequate hydroxypropylbétacyclodextrine concentration (up to 32mM), 25°, 72 h) was 1,4 GRAMMES PAR LITRE. Besides, the “SOLUBILITE EN GRAMMES PAR LITRE dans l'eau” value (water without cyclodextrin, 25°, 72 h) was 0,005 GRAMMES PAR LITRE.
